#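 Step 1: Grow cells in 96-well plates. Step 2: Expose to compound for 48 hours at 5 concentrations. Step 3: Interpolate endpoints linearly; if unreached, use highest concentration. GI50 = concentration required for 50% inhibition of growth.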 Activity calls are given as the source filed them. Rule as the data show it: active = GI50 up to about 1.1 µM and inactive = higher.
# Assays:
# Assay in all cases: NCI-60 cell line screen, 48 h
# [1] = system: BT-549
# [2] = system: MCF7
# [3] = system: T47D
# [4] = system: DLD-1
# [5] = system: KM-20L2
# [6] = system: M19-MEL
# [7] = system: SNB-78
# [8] = system: HOP-18
Structure (SMILES),GI50 [1],GI50 [2],GI50 [3],GI50 [4],GI50 [5],GI50 [6],GI50 [7],GI50 [8]
CCOC(=O)CSC1NC(C(=O)OC)CC1OC (stereo not drawn),> 100 µM (inactive),> 100 µM (inactive),–,–,–,–,–,–
Nc1ccn(C2CCC(CO)O2)c(=S)n1 (stereo not drawn),> 100 µM (inactive),> 100 µM (inactive),> 100 µM (inactive),–,–,–,–,–
Nc1ncn2c(n1)nc1ccccc12,> 100 µM (inactive),> 100 µM (inactive),> 100 µM (inactive),–,–,–,–,–
[N-]=[N+]=Nc1ccccc1Oc1ccccc1,–,–,–,> 100 µM (inactive),> 100 µM (inactive),> 100 µM (inactive),> 100 µM (inactive),–
CC[N+](CC)(CC)Cc1cn(S(=O)(=O)c2ccccc2)c2ccccc12,–,–,–,> 100 µM (inactive),> 100 µM (inactive),> 100 µM (inactive),–,–
Clc1ccc(COC(Cn2ccnc2)c2ccc(Cl)cc2Cl)c(Cl)c1 (stereo not drawn) [MICONAZOLE],15 µM (inactive),10.9 µM (inactive),7.89 µM (inactive),–,–,–,–,–
CC1(C)[C@H]2CC[C@@]13C(=O)N1C(=O)O[C@@H]([C@H]1Cl)C(Cl)(COCc1ccccc1)C(=O)OCCO[C@H]3C2 (stereo partly drawn),61.2 µM (inactive),44.2 µM (inactive),43.1 µM (inactive),–,–,–,–,–
N[C@@H](Cc1ccccc1)C(=O)N1CCC[C@@H]1P(=O)(Oc1ccccc1)Oc1ccccc1,> 100 µM (inactive),> 100 µM (inactive),> 100 µM (inactive),–,–,–,–,–
N[C@H]1CCCC[C@@H]1N1C(=O)c2ccccc2C1(O)c1ccc(Cl)cc1 (stereo partly drawn),15 µM (inactive),12.3 µM (inactive),4.99 µM (inactive),–,–,–,–,–
Cc1cc(=O)n2c(cc3cccccc32)n1,–,–,–,–,> 100 µM (inactive),–,> 100 µM (inactive),–
O=[N+]([O-])c1ccc(C(c2c[nH]c3ccccc23)c2c[nH]c3ccccc23)cc1,4.97 µM (inactive),2.24 µM (inactive),0.653 µM (active),–,–,–,–,–
COc1ccc(-c2cc(-c3ccc(Nc4ccnc5cc(C(F)(F)F)ccc45)cc3)[nH]c(=O)c2C#N)cc1,> 52 µM (inactive),> 88.7 µM (inactive),45.7 µM (inactive),–,–,–,–,–
CN(C)c1ccc(C(C#N)NNC(=O)Cc2ccccc2)cc1 (stereo not drawn),–,–,–,> 100 µM (inactive),> 100 µM (inactive),> 100 µM (inactive),> 100 µM (inactive),> 100 µM (inactive)
COC(=O)c1sc2c(=O)c(C(=O)OC)c(C(=O)OC)sc2c(=O)c1C(=O)OC,> 100 µM (inactive),> 100 µM (inactive),> 100 µM (inactive),–,–,–,–,–
CCN(CC)CCCNC(=O)Cc1ccccc1Nc1c(Cl)cccc1Cl,–,–,–,15 µM (inactive),3.81 µM (inactive),4.97 µM (inactive),15.9 µM (inactive),–
CCN(CC)CC1CCCCN1CC(=O)N1c2ccccc2C(=O)Nc2cccnc21 (stereo not drawn) [OTENZEPAD],–,27.9 µM (inactive),> 100 µM (inactive),–,–,–,–,–
Cn1c(N)c(Cc2ccc(Cl)cc2)c(=O)[nH]c1=O,> 100 µM (inactive),> 100 µM (inactive),> 100 µM (inactive),–,–,–,–,–
CCOP(=O)(OCC)C(Nc1ccc(Br)cc1)c1cccc([N+](=O)[O-])c1 (stereo not drawn),–,–,12.6 µM (inactive),–,–,–,–,–
CCOC(=O)c1ccc(NC(=O)SCCC(=O)O)cc1,–,–,–,> 100 µM (inactive),> 100 µM (inactive),–,> 100 µM (inactive),–
O=C(NCc1cccnc1)NCc1cccnc1,> 100 µM (inactive),> 100 µM (inactive),> 100 µM (inactive),–,–,–,–,–
Nc1nc(O)c(N)c(NCCOCP(=O)(O)O)n1,> 74.8 µM (inactive),> 100 µM (inactive),> 100 µM (inactive),–,–,–,–,–

Structure (SMILES),GI50 [1],GI50 [2],GI50 [3],GI50 [4],GI50 [5],GI50 [6],GI50 [7],GI50 [8]
COc1ccc(-n2nnc3c(C#N)c(C)c(-c4ccccc4)n3c2=O)cc1,5.92 µM (inactive),3.8 µM (inactive),1.76 µM (inactive),–,–,–,–,–
Cc1ccc(S(=O)(=O)NNC(=O)Nc2ccc([N+](=O)[O-])cc2)cc1,78.9 µM (inactive),35.6 µM (inactive),2.65 µM (inactive),–,–,–,–,–
COC(=O)[C@H](Cc1c[nH]c2ccccc12)NC(=O)c1ccc(CNC(=O)/C(C)=C/c2ccccc2)cc1,28.1 µM (inactive),29.2 µM (inactive),3.7 µM (inactive),–,–,–,–,–
COc1cc(OC)c(C/C=C/c2ccccc2)cc1O,16.1 µM (inactive),–,10.6 µM (inactive),–,–,–,–,–
CN(C)/N=N/c1nc2c(c(=O)n(C)c(=O)n2C)n1CC(O)CO (stereo not drawn),> 100 µM (inactive),10.6 µM (inactive),38.7 µM (inactive),–,–,–,–,–
C=CCC1(OCc2ccccc2)C(=O)C(=O)OC1C1COC(C)(C)O1 (stereo not drawn),> 100 µM (inactive),> 100 µM (inactive),> 100 µM (inactive),–,–,–,–,–
CCCCCC1=C/C(=C\c2[nH]c(-c3ccc[nH]3)cc2OC)N=C1C,0.0324 µM (active),0.0136 µM (active),0.0189 µM (active),–,–,–,–,–
NC1=NC2=C(CCCC2)C(c2cccs2)S1 (stereo not drawn),–,–,–,–,> 100 µM (inactive),> 100 µM (inactive),> 100 µM (inactive),33.5 µM (inactive)
Cc1cc(C)nc(SC(C)C(=O)N/N=C/c2ccc(OCc3ccccc3)cc2)n1 (stereo not drawn),26.5 µM (inactive),21 µM (inactive),9.53 µM (inactive),–,–,–,–,–
Cc1nnc2c3c(-c4ccccc4)c(-c4ccccc4)oc3nc(N(C)C)n12,–,33.3 µM (inactive),83.6 µM (inactive),–,–,–,–,–
O=C(NCCCN1CCN(CCCNC(=O)Nc2cc(Cl)ccc2Cl)CC1)Nc1cc(Cl)ccc1Cl,–,–,–,> 100 µM (inactive),28.4 µM (inactive),–,90.6 µM (inactive),> 100 µM (inactive)
Cc1ccc(C(=O)C2=CN=C3C(=O)N(c4ccccc4)N(C)C3(C)C2=N)cc1 (stereo not drawn),> 100 µM (inactive),> 100 µM (inactive),–,–,–,–,–,–
CNc1ncc(-c2nnnn2-c2ccccc2)c(CN(C)C)n1,> 100 µM (inactive),> 100 µM (inactive),> 100 µM (inactive),–,–,–,–,–
NC1=NCCC1(c1ccccc1)c1ccccn1 (stereo not drawn),–,–,–,–,> 100 µM (inactive),> 100 µM (inactive),> 100 µM (inactive),> 100 µM (inactive)
Cc1cn(CC2=NCCCN2)c(=O)[nH]c1=O,> 100 µM (inactive),> 100 µM (inactive),> 100 µM (inactive),–,–,–,–,–
Cc1cc([N+](=O)[O-])c(C)c2c1[nH]c1ccc(Cl)cc12,–,–,–,> 10 µM (inactive),–,> 100 µM (inactive),> 100 µM (inactive),> 100 µM (inactive)
COc1cccc2c3cccc(OC)c3c3[nH]cnc3c12,16.1 µM (inactive),1.58 µM (inactive),6.24 µM (inactive),–,–,–,–,–
CCCNC1=C2CC(C)CC(OC)[C@@H](O)[C@H](C)/C=C(\C)C(OC(N)=O)C(OC)/C=C\C=C(/C)C(=O)NC(=CC1=O)C2=O (stereo partly drawn),12.3 µM (inactive),0.124 µM (active),0.476 µM (active),–,–,–,–,–
CC(N)C(C)c1ccccc1 (stereo not drawn),–,–,–,> 100 µM (inactive),> 100 µM (inactive),–,> 100 µM (inactive),> 100 µM (inactive)
O=C1NC2C(CCO)CC=C[C@H]2c2cc3c(cc21)OCO3 (stereo partly drawn),–,–,–,> 100 µM (inactive),> 100 µM (inactive),> 100 µM (inactive),> 100 µM (inactive),–
O=C(Oc1ccc(OC(Oc2ccccc2)c2ccccc2)cc1)c1ccccc1 (stereo not drawn),26.5 µM (inactive),29.8 µM (inactive),50 µM (inactive),–,–,–,–,–

Structure (SMILES),GI50 [1],GI50 [2],GI50 [3],GI50 [4],GI50 [5],GI50 [6],GI50 [7],GI50 [8]
COc1cc2c(cc1OCCCCCOc1cc3c(cc1OC)C(=O)N1CCC[C@H]1CN3)N=C[C@@H]1CCCN1C2=O,2.66 µM (inactive),15.8 µM (inactive),3.5 µM (inactive),–,–,–,–,–
N#Cc1c(Cl)nc2ccccc2c1N=[N+]=[N-],1.8 µM (inactive),4.56 µM (inactive),2.47 µM (inactive),–,–,–,–,–
Nc1c(-c2nc3ccccc3s2)c2ccc([N+](=O)[O-])cc2c(=O)n1-c1cccc(C(=O)O)c1,20.1 µM (inactive),–,21 µM (inactive),–,–,–,–,–
CC1(C)O[C@@H]2[C@@H](COC(C)(C)O[C@H]2C2SCCCS2)O1,–,> 100 µM (inactive),> 100 µM (inactive),–,–,–,–,–
Cc1c(C)n(-c2ccccc2)c2nc([S+](C)[O-])nc([S+](C)[O-])c12 (stereo not drawn),0.755 µM (active),2.16 µM (inactive),2.44 µM (inactive),–,–,–,–,–
c1ccc2c3nnc(c2c1)SCCCSc1nnc(c2ccccc12)SCCCS3,–,> 100 µM (inactive),> 100 µM (inactive),–,–,–,–,–
COC1C(O)C(O[C@H]2CC[C@@]3(C)C(CC[C@@H]4[C@@H]3CC[C@]3(C)[C@@H](C(C)OC5OC(CO)C(O)C(O)C5O)CC[C@]43O)C2)OC(C)C1OC1OC(CO)C(O)C(O)C1O (stereo partly drawn),> 100 µM (inactive),> 100 µM (inactive),> 100 µM (inactive),–,–,–,–,–
COc1ccc(OC)c2c1ccc1c(C)c3ccccc3c(C)c12,> 100 µM (inactive),20.9 µM (inactive),> 100 µM (inactive),–,–,–,–,–
O=c1[nH]c(-c2ccccc2)nc2c1sc1nc3ccccc3n12,> 61 µM (inactive),> 100 µM (inactive),> 100 µM (inactive),–,–,–,–,–
C[C@H]1C(=O)C2=C[C@H]1CCC(=O)[C@]1(C)CCCC(C)(C)[C@H]1C[C@H]2O,28.2 µM (inactive),13.7 µM (inactive),17.6 µM (inactive),–,–,–,–,–
CCOP(=O)(OCC)/C(C#N)=C/c1ccc(-c2cc(C(F)(F)F)cc(C(F)(F)F)c2)o1,25.7 µM (inactive),6.3 µM (inactive),11.9 µM (inactive),–,–,–,–,–
O=C1C(Cl)=C(N[C@@H](Cc2ccccc2)C(=O)OCc2ccccc2)C(=O)c2c(O)ccc(O)c21,> 10 µM (inactive),–,> 10 µM (inactive),–,–,–,–,–
CC1(C)COC(c2ccc(C(=O)c3ccc(Cl)cc3)cc2)=N1,–,86.5 µM (inactive),–,–,–,–,–,–
N#C[BH2-][n+]1ccc(C(=O)NNCc2cccc(C(F)(F)F)c2)cc1,14.3 µM (inactive),5.64 µM (inactive),20 µM (inactive),–,–,–,–,–
CCOC(=O)c1sc2ncnc(N)c2c1C,> 100 µM (inactive),51.6 µM (inactive),24.2 µM (inactive),–,–,–,–,–
Cc1cc2c(cc1O)CC[C@@H]1[C@@H]2CC[C@]2(C)[C@@H](O)CC[C@@H]12,6.27 µM (inactive),8.85 µM (inactive),19.3 µM (inactive),–,–,–,–,–
O=[N+]([O-])c1ccc2nc(=S)[nH]n2c1,> 100 µM (inactive),> 100 µM (inactive),> 100 µM (inactive),–,–,–,–,–
CCOC(=O)/C(=C\NC[C@@H](C)O)c1nc2ccccc2[nH]1,> 100 µM (inactive),60.8 µM (inactive),–,–,–,–,–,–
C=C1[C@H](OCC(C)C)[C@@H](OC(=O)C(C)CC)[C@@H](O)C(C)(C)/C=C/[C@H](C)C(=O)[C@@]2(O)C[C@H](C)[C@H](O)[C@@H]2[C@H]1OC(=O)C(C)CC (stereo partly drawn),4.63 µM (inactive),5.92 µM (inactive),> 13.1 µM (inactive),–,–,–,–,–

# From ChEMBL document CHEMBL1201862, “PubChem BioAssay data set” (2004)
